Data as given in US20240261443A1, “COMPOUNDS AND COMPOSITIONS USEFUL AS RADIOTRACERS FOR IMAGING OF REACTIVE OXIDATIVE SPECIES” (Wake Forest University Health Sciences, priority 2019, published 2024).

Key:
Assay type in all cases: cell-based, human
SCC-61 and rSCC-61 cells = experiment: [18F]KS1 in vitro cell uptake in HNSCC cells
Protocol: (§1) ROS efficacy was evaluated in two tumor cell lines: (1)SCC-61 and rSCC-61 cells (HNSCC) (FIG. 5), and (2) PC3 (PCa) cell lines under normoxic and hypoxic conditions (FIG. 6) following previously published protocols by our group (Sai et al., Peptide-based PET imaging of the tumor restricted IL13RA2 biomarker. Oncotarget 2017, 5; Yamamoto et al., Correlation of 18F-FLT and 18F-FDG uptake on PET with Ki-67 immunohistochemistry in non-small cell lung cancer. European Journal of Nuclear Medicine and Molecular Imaging 2007, 34 (10), 1610-1616; Solingapuram Sai et al., Radiolabeling and initial biological evaluation of [18F]KBM-1 for imaging RAR-α receptors in neuroblastoma. Bioorganic & Medicinal Chemistry Letters 2017, 27 (6), 1425-1427). Several ROS blockers including fresh solution of non-radioactive compounds KS1, KS2, SOD (10 μM) in the cell media were added to the seeded tumor cells 1.0 h prior to radiotracer addition (n=6 per blocker). All the cells were then treated with [^18F]KS1 (2.0 μCi/well, UV mass=0.4 μg/mL and S.A=3100 mCi/μmol) and incubated for 60 min (n=6) at 37° C. All the cells (both with and without blockers) were washed and lysed with lysate buffer solution. Lysate samples from each well were collected for gamma counting.
(§2) Similarly, in another experiment, human PCa-PC3 cells were cultured under normoxic (˜21% O2) or hypoxic (1% O2) conditions for 48 h. Thereafter, similar to HNSCC cells (detailed above) all assay steps including blocker treatment, radiotracer addition, incubations, washings and lysis were carried out under normoxic or hypoxic conditions. All hypoxia experiments were performed in a hypoxia chamber (Biospherix X3 Xvivo system). Plates without radioactivity were used as controls. Additional aliquots were taken from each well to measure protein concentration. The counts per minute values of each well were normalized to the amount of radioactivity added to each well and was expressed as percent uptake relative to the control condition. The data were expressed as % ID/mg of protein present in each well.
We reported the basic in vitro cell uptake assay of [^18F]KS1 in PC3 and SCC-61 cell lines using KS1 and ascorbate as blockers (Solingapuram Sai et al., Initial biological evaluations of 18F-KS1, a novel ascorbate derivative to image oxidative stress in cancer. EJNMMI Research 2019, 9 (1), 43), following previously published protocols by our group (Sai, et al., Peptide-based PET imaging of the tumor restricted IL13RA2 biomarker. Oncotarget 2017, 8 (31), 50997-51007; Solingapuram Sai et al., Radiolabeling and initial biological evaluation of [(18)F]KBM-1 for imaging RAR-α receptors in neuroblastoma. Bioorganic & medicinal chemistry letters 2017, 27 (6), 1425-1427; Sattiraju et al., IL13RA2 targeted alpha particle therapy against glioblastomas. Oncotarget 2017, 8 (26), 42997-43007). Here we report complete cell uptake of [^18F]KS1 in SCC-61 and rSCC-61 cell lines of HNSCC using several ROS blocking agents including ascorbate, SOD, catalase, DHE, and non-radioactive compounds KS1 ([…]) and few ROS inducers including doxorubicin and ferritin. These agents were added in the cell media to the seeded tumor cells 1.0 h prior to radiotracer addition (n=6 per blocker). The y counts per minute values of each well were normalized to the amount of radioactivity added to each well and the protein concentration in the well and expressed as percent uptake relative to the control condition. The data were expressed as % ID/mg of protein present in each well. […]

PC3 cells = experiment: [18F]KS1 in vitro cell uptake in PC3 cells, normoxic and hypoxic
Protocol: as §1
as §2, with “Additional aliquots were taken from each well to measure protein concentration.” left out
To further test the specificity of [^18F]KS1 for ROS, radioactive uptake in PCa cells was tested under hypoxic conditions, as several studies have shown that hypoxic conditions promote ROS generation and oxidative stress (Kumar et al., Oxidative Stress Is Inherent in Prostate Cancer Cells and Is Required for Aggressive Phenotype. Cancer Research. 2008; 68:1777-85; Pinthus et al., Androgen Induces Adaptation to Oxidative Stress in Prostate Cancer: Implications for Treatment with Radiation Therapy. Neoplasia (New York, NY). 2007; 9:68-80; Cervellati et al., Hypoxia induces cell damage via oxidative stress in retinal epithelial cells. […] A reported hypoxia model of PCa cells was tested in which the uptake of [^18F]KS1 was evaluated in PC3 cells cultured under hypoxic conditions versus normoxic conditions.

[1] = tested on: SCC-61 and rSCC-61 cell lines; experiment: MitoSOX fluorescence ROS assay, with or without SOD blocker
Protocol: As a first-line tool to screen KS1 and KS2: SCC-61 has higher intracellular ROS than rSCC-61. MitoSOX is a mitochondrion-targeted dihydroethidium based derivative that primarily detects ROS (superoxide anion) produced within mitochondria. Mitosox assays without any ligands were used as controls. The two cell lines were treated with KS1, KS2 and ascorbate (10.0 μM) and incubated for an hour. MitoSOX (1.0 μM) in phenol red-free DMEM/F12 media was added and incubated for an additional 10 min. The cells were then washed with PBS and imaged in the same media.
In addition to testing KS1 with the MitoSOX assay, we compared our results with no ligand controls and ascorbate as a reference standard. The two cell lines were treated with KS1 and ascorbate (10.0 μM) and incubated for an hour. MitoSOX (1.0 μM) in phenol red-free DMEM/F12 media was added and incubated for an additional 10 min. The cells were then washed with PBS and imaged in the same media. Ligand specificity is commonly determined by pretreating the cells with high concentrations of blockers. Superoxide dismutase (SOD), an enzyme that selectively suppresses accumulation of ROS-superoxide peroxide anions, was added as blocker (1.0 mM) 60 min before the treatment of KS1 (Bielski et al., Chemistry of ascorbic acid radicals. in Ascorbic Acid: Chemistry, Metabolism, and Uses. Chapter. 1982; 4:81-100). Fluorescence was subsequently measured and its intensity was quantified in f.u (fluorescence units).
Ligand specificity is commonly determined by pretreating the cells with high concentrations of blockers. We used superoxide dismutase (SOD), an enzyme that selectively suppresses accumulation of ROS-superoxide peroxide anions (Bielski et al., Chemistry of ascorbic acid radicals. in Ascorbic Acid: Chemistry, Metabolism, and Uses. Chapter 1982, 4, 81-100). The same MitoSOX assay with KS1 and KS2 (10 μM) was performed by pretreating the SCC-61 cells with SOD (1.0 mM) for 60 min.

O=C1O/C(=C/CCl)C(O)=C1OCc1ccc(OCC[18F])cc1 [[^18F]KS1]
uptake increase with ROS inducer doxorubicin (SCC-61 and rSCC-61 cells; Example 8): ~30%
radioactive uptake in SCC-61 cells compared to rSCC-61 uptake (SCC-61 and rSCC-61 cells; Example 8, 60 min, 37° C.): ~1.5 fold
uptake blocked by nonradioactive KS1 (SCC-61 and rSCC-61 cells; Example 8, KS1 10 μM added 1.0 h prior): ~40%
uptake blocked by SOD (SCC-61 and rSCC-61 cells; Example 8, SOD 10 μM added 1.0 h prior): ~60%
radioactive uptake in SCC-61 cells compared to rSCC-61 uptake (SCC-61 and rSCC-61 cells; Example 14): ~3 fold
radioactive uptake increased by ROS-inducer Dox (SCC-61 and rSCC-61 cells; Example 14): ~20%
radioactive uptake increased by ferritin (SCC-61 and rSCC-61 cells; Example 14): ~32%
radioactive uptake inhibited by catalase (SCC-61 and rSCC-61 cells; Example 14): ~90%
uptake in SCC-61 cells blocked by nonradioactive KS1 (SCC-61 and rSCC-61 cells; Example 14, KS1 (100 PM) added 1.0 h prior): ~70%
uptake in SCC-61 cells blocked by SOD (SCC-61 and rSCC-61 cells; Example 14, added 1.0 h prior): ~65%
uptake in SCC-61 cells blocked by ascorbate (SCC-61 and rSCC-61 cells; Example 14, added 1.0 h prior): ~65%
uptake blocked by SOD (PC3 cells; PC3 cells): ~48%
uptake blocked by nonradioactive KS1 (PC3 cells; PC3 cells): ~61%
uptake increase with doxorubicin (PC3 cells; PC3 cells): ~15%
radioactive uptake in PC3 under hypoxic conditions versus normoxic conditions (PC3 cells; hypoxic 1% O2 vs normoxic ~21% O2, 60 min): ~2 fold

O=C1O/C(=C/CCl)C(O)=C1OCc1ccc(OCCF)cc1 [KS1, (E)-5-(2-chloroethylidene)-3-(4-(2-fluoroethoxy)benzyloxy)-4-hydroxyfuran-2(5H)-one]
MitoSOX fluorescence in SCC-61 compared to rSCC-61 cells ([1]; 10.0 μM, 1 h incubation): higher fluorescence
higher selectivity between the two cell lines compared to ascorbate selectivity ([1]; Example 4, SCC-61 vs rSCC-61, MitoSOX fluorescence): ~10 fold
higher differential selectivity between the high- and low-ROS cell lines compared to ascorbate ([1]; Example 5, SCC-61 vs rSCC-61, MitoSOX fluorescence): ~2.2 fold
fluorescent intensity of KS1-mitoSOX with SOD ([1]; SCC-61 cells, 10 μM, SOD (1.0 mM) pretreatment 60 min): 1842 f.u
fluorescent intensity of KS1-mitoSOX ([1]; SCC-61 cells, 10 μM, without SOD): 3631 f.u
decrease of fluorescent uptake by SOD pretreatment ([1]; SCC-61 cells, SOD (1.0 mM) for 60 min): ~50%
